Measured values reported in PubChem BioAssay (NCI).
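48-hour exposure; five concentrations; linearly interpolated endpoints. TGI: concentration producing complete growth inhibition.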

Experiments:
Test in all cases: NCI tumour cell line growth inhibition, 48 h
786-0 renal = system: 786-0 renal
A498 renal = system: A498 renal
A549 NSCLC = system: A549 NSCLC
BT-549 breast = system: BT-549 breast
CAKI-1 renal = system: CAKI-1 renal
CCRF-CEM leukemia = system: CCRF-CEM leukemia
COLO 205 colon = system: COLO 205 colon
DLD-1 colon = system: DLD-1 colon
DMS 114 small cell lung = system: DMS 114 small cell lung
DMS 273 small cell lung = system: DMS 273 small cell lung
DU-145 prostate = system: DU-145 prostate
EKVX NSCLC = system: EKVX NSCLC
HCC-2998 colon = system: HCC-2998 colon
HCT-116 colon = system: HCT-116 colon
HCT-15 colon = system: HCT-15 colon
HL-60(TB) leukemia = system: HL-60(TB) leukemia
HOP-18 NSCLC = system: HOP-18 NSCLC
HOP-62 NSCLC = system: HOP-62 NSCLC
HOP-92 NSCLC = system: HOP-92 NSCLC
HS 578T breast = system: HS 578T breast
HT29 colon = system: HT29 colon
IGROV1 ovarian = system: IGROV1 ovarian
K-562 leukemia = system: K-562 leukemia
KM12 colon = system: KM12 colon
KM20L2 colon = system: KM20L2 colon
LOX IMVI melanoma = system: LOX IMVI melanoma
LXFL 529 NSCLC = system: LXFL 529 NSCLC
M14 melanoma = system: M14 melanoma
M19-MEL melanoma = system: M19-MEL melanoma
MALME-3M melanoma = system: MALME-3M melanoma
MCF7 breast = system: MCF7 breast
MDA-MB-231 breast = system: MDA-MB-231 breast
MDA-MB-435 = system: MDA-MB-435
MDA-N = system: MDA-N
MOLT-4 leukemia = system: MOLT-4 leukemia
NCI-H226 lung = system: NCI-H226 lung
NCI-H23 lung = system: NCI-H23 lung
NCI-H460 lung = system: NCI-H460 lung
NCI-H522 lung = system: NCI-H522 lung
OVCAR-3 ovarian = system: OVCAR-3 ovarian
OVCAR-4 ovarian = system: OVCAR-4 ovarian
OVCAR-5 ovarian = system: OVCAR-5 ovarian
OVCAR-8 ovarian = system: OVCAR-8 ovarian
PC-3 prostate = system: PC-3 prostate
RPMI-8226 leukemia = system: RPMI-8226 leukemia
RXF 393 renal = system: RXF 393 renal
RXF-631 renal = system: RXF-631 renal
SF-268 CNS = system: SF-268 CNS
SF-295 CNS = system: SF-295 CNS
SF-539 CNS = system: SF-539 CNS
SK-MEL-2 melanoma = system: SK-MEL-2 melanoma
SK-MEL-28 melanoma = system: SK-MEL-28 melanoma
SK-MEL-5 melanoma = system: SK-MEL-5 melanoma
SK-OV-3 ovarian = system: SK-OV-3 ovarian
SN12C renal = system: SN12C renal
SNB-19 CNS = system: SNB-19 CNS
SNB-75 CNS = system: SNB-75 CNS
SNB-78 CNS = system: SNB-78 CNS
SR leukemia = system: SR leukemia
SW-620 colon = system: SW-620 colon
T-47D breast = system: T-47D breast
U251 CNS = system: U251 CNS
UACC-257 melanoma = system: UACC-257 melanoma
UACC-62 melanoma = system: UACC-62 melanoma
XF 498 CNS = system: XF 498 CNS

CN(C)CCN1C(=O)c2cccc3cc([N+](=O)[O-])cc(c23)C1=O
TGI (786-0 renal): 8.1 µM
TGI (A498 renal): 0.386 µM
TGI (A549 NSCLC): 0.397 µM
TGI (BT-549 breast): 7.62 µM
TGI (CAKI-1 renal): 1.76 µM
TGI (CCRF-CEM leukemia): 0.798 µM
TGI (COLO 205 colon): 9.56 µM
TGI (DLD-1 colon): 28.4 µM
TGI (DMS 114 small cell lung): 0.811 µM
TGI (DMS 273 small cell lung): 0.557 µM
TGI (DU-145 prostate): > 100 µM
TGI (EKVX NSCLC): 2.68 µM
TGI (HCC-2998 colon): 3.56 µM
TGI (HCT-116 colon): 6.7 µM
TGI (HCT-15 colon): 4.2 µM
TGI (HL-60(TB) leukemia): > 45.3 µM
TGI (HOP-18 NSCLC): 6.4 µM
TGI (HOP-62 NSCLC): 0.779 µM
TGI (HOP-92 NSCLC): 1.12 µM
TGI (HS 578T breast): 4.65 µM
TGI (HT29 colon): 2.8 µM
TGI (IGROV1 ovarian): 4.49 µM
TGI (K-562 leukemia): 26.5 µM
TGI (KM12 colon): 4.28 µM
TGI (KM20L2 colon): 5.63 µM
TGI (LOX IMVI melanoma): 0.806 µM
TGI (LXFL 529 NSCLC): 2.8 µM
TGI (M14 melanoma): 2.14 µM
TGI (M19-MEL melanoma): 1.84 µM
TGI (MALME-3M melanoma): 1.84 µM
TGI (MCF7 breast): 0.743 µM
TGI (MDA-MB-231 breast): 14.6 µM
TGI (MDA-MB-435): 4.66 µM
TGI (MDA-N): 10.5 µM
TGI (MOLT-4 leukemia): 2.04 µM
TGI (NCI-H226 lung): 0.436 µM
TGI (NCI-H23 lung): 1.24 µM
TGI (NCI-H460 lung): 0.384 µM
TGI (NCI-H522 lung): 2.12 µM
TGI (OVCAR-3 ovarian): 6.27 µM
TGI (OVCAR-4 ovarian): 6.37 µM
TGI (OVCAR-5 ovarian): 5.24 µM
TGI (OVCAR-8 ovarian): 2.02 µM
TGI (PC-3 prostate): 3.49 µM
TGI (RPMI-8226 leukemia): 10.2 µM
TGI (RXF 393 renal): 0.923 µM
TGI (RXF-631 renal): 3.62 µM
TGI (SF-268 CNS): 3.12 µM
TGI (SF-295 CNS): 1.38 µM
TGI (SF-539 CNS): 1.32 µM
TGI (SK-MEL-2 melanoma): 3.14 µM
TGI (SK-MEL-28 melanoma): 6.85 µM
TGI (SK-MEL-5 melanoma): 1.37 µM
TGI (SK-OV-3 ovarian): 0.806 µM
TGI (SN12C renal): 1.69 µM
TGI (SNB-19 CNS): 2.12 µM
TGI (SNB-75 CNS): 1.05 µM
TGI (SNB-78 CNS): 15 µM
TGI (SR leukemia): 97 µM
TGI (SW-620 colon): 3.7 µM
TGI (T-47D breast): 29.6 µM
TGI (U251 CNS): 2 µM
TGI (UACC-257 melanoma): 2.13 µM
TGI (UACC-62 melanoma): 1.03 µM
TGI (XF 498 CNS): 2 µM
